According to patent US20230310376A1, “PROPHYLACTIC AND/OR THERAPEUTIC AGENT FOR IDIOPATHIC PULMONARY FIBROSIS” (ONO PHARMACEUTICAL CO., LTD., priority 2020, published 2023):
“Also recorded” adds a separate entry of the source.

What was measured:
[1] = target: human LPA1 receptor (Homo sapiens, UniProt Q92633); assay: LPA1 agonistic activity measurement in receptor-expressing cell strain; type: cell-based; settings: cell strain stably expressing human LPA1 receptor
[2] = target: LPA2 receptor (Homo sapiens, UniProt Q9HBW0); assay: LPA2 agonistic activity measurement in receptor-expressing cell strain; type: cell-based; settings: cell strain stably expressing LPA2 receptor
[3] = test system: bleomycin-induced pulmonary fibrosis models produced using LPA3 receptor-deficient C57BL/6N mice; assay: Bleomycin-induced pulmonary fibrosis model, LPA3 receptor-deficient C57BL/6N mice; type: in vivo, mouse; settings: transpulmonary bleomycin, 3 mg/kg oral two times/day to day 21, vs medium-administered group
Method: (§1) Wild-type and LPA3 receptor-deficient male C57BL/6N mice (Oriental BioService, Inc., the week age at the start of the experiment: 13-week old) were used. Bleomycin hydrochloride (Nippon Kayaku Co., Ltd.) was dissolved in physiological saline (Otsuka Pharmaceutical Factory, Inc.) to prepare a 0.41-mg/mL solution. The bleomycin solution thus prepared was administered to each of the mice at a dosage volume of 75 μL through a transpulmonary route. For a normal group, physiological saline was administered at a dosage volume of 75 μL through a transpulmonary route.
(§2) On the day of first administration of bleomycin, the body weights were measured, and the mice were divided into groups equally in such a manner that a significant difference was not observed in the average values of the body weights among the groups. After the grouping, the administration of a test substance or the medium started, and the administration was performed repeatedly through an oral route at a frequency of two times/day from the day of the first administration of bleomycin to day 21. The volume of a solution to be administered was calculated on the basis of the body weight of each of the mice.
On the next day of the day of the final administration, each of the animals was subjected to the opening of the abdominal cavity under the anesthesia with a three types of mixed anesthetic agent (the intraperitoneal administration of 0.3 mg/10 mL/kg of medetomidine, 4 mg/10 mL/kg of midazolam, and 5 mg/10 mL/kg of butorphanol), and then the abdomen aorta in each of the animals was dissected to bleed to death. After the bleeding to death, the lung was excised, and the lung wet weight was measured. Subsequently, the lung was frozen. The frozen lung was homogenized, and then 11.2-N hydrochloric acid (200 μL) was added to a homogenate solution to hydrolyze the homogenate solution at about 120° C. for 34 hours. The content of hydroxyproline in the solution after the hydrolysis was measured using a hydroxyproline quantification kit (BioVision, Inc.).

[4] = test system: bleomycin-induced pulmonary fibrosis models produced using male ICR mice; assay: Bleomycin-induced pulmonary fibrosis model, male ICR mice; type: in vivo, mouse; settings: bleomycin i.v. 5 days, 0.3, 1, 3 mg/kg oral two times/day to day 28, vs medium-administered group
Method: Male ICR mice (Charles River Laboratories Japan, Inc., the week age at the start of experiment: 12-week old) were used. Bleomycin hydrochloride (Nippon Kayaku Co., Ltd.) was dissolved in physiological saline (Otsuka Pharmaceutical Factory, Inc.) to prepare a 3-mg/mL solution. The bleomycin solution thus prepared was administered into a tail vein of each of the mice at a dosage volume of 5 mL/kg at a frequency of 1 time/day for 5 days. For a normal group, physiological saline was administered into a tail vein at a dosage volume of 5 mL/kg at a frequency of 1 time/day for 5 days.
as §2, with “through” for “through an”, “28.” for “21.”
On the next day of the day of the final administration, each of the animals was subjected to the opening of the abdominal cavity under the anesthesia with 2% isoflurane, and then the abdomen aorta in each of the mice was dissected to bleed to death. After the bleeding to death, the right lung was excised, and the lung wet weight was measured. Subsequently, the tissues of the right lung were dried with a dry-heat sterilizer, and the dry weight of the right lung was measured. […] The weight of the product after the neutralization was measured to calculate the amount (g) of the sample after the neutralization. […]
A chloramine T reagent (1 mL) was added to an HYP standard solution (2 mL), the resultant mixture was left to stand for 20 minutes at room temperature, then a perchloric acid reagent (1 mL) was added to the solution, and then the resultant mixture was left to stand for 5 minutes at room temperature. A p-dimethylaminobenzaldehyde reagent (1 mL) was added to the solution, then the resultant mixture was warmed to 60° C. for 20 minutes, and then the absorbance of a supernatant produced by the filtration of the mixture through a filter was measured at 557 nm with a spectrophotometer to produce a standard curve.
With respect to each of the HYP content measurement samples (2 mL), the measurement of the absorbance was performed in the same manner as mentioned above, and then the HYP content (μg/mL) was calculated on the basis of the standard curve. […] The HYP amount in the right lung (μg/Lung) was calculated in accordance with the following equation. […]

[5] = test system: bleomycin-induced pulmonary fibrosis model, wild-type male C57BL/6N mice; assay: Bleomycin-induced pulmonary fibrosis model, wild-type C57BL/6N mice; type: in vivo, mouse; settings: transpulmonary bleomycin, 3 mg/kg oral two times/day to day 21, vs medium-administered group
Method: as §1
as §2, with “mice. […]” for “mice.”

LPA2 receptor, sequence (Q9HBW0 whole entry): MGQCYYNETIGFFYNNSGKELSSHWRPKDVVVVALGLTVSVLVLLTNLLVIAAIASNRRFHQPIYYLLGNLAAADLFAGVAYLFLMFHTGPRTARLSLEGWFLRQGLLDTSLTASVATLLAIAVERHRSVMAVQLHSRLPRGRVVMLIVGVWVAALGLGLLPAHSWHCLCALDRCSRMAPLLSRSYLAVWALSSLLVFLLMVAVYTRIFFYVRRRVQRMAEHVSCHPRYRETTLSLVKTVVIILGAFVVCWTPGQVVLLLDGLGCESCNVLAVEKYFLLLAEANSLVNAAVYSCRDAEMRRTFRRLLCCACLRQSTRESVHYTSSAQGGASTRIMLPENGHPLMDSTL
human LPA1 receptor, sequence (Q92633 whole entry): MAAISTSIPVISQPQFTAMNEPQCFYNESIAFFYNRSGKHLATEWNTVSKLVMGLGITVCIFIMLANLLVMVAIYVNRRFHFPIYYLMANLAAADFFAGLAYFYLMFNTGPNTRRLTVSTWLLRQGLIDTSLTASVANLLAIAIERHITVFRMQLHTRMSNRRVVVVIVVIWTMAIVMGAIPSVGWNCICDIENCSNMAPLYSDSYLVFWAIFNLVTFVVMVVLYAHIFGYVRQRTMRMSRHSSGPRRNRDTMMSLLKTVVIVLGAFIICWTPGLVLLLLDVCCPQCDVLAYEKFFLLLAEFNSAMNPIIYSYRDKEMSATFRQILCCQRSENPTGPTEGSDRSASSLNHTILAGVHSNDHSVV

SMILES: Cc1ccc(Cn2c(C(=O)O)c(CNC3CCC3)c3ccccc32)cc1 [Compound I, 3-[(Cyclobutylamino)methyl]-1-(4-methylbenzyl)-1H-indol-2-carboxylic acid]
- EC50 [1]: > 10 µM
- EC50 [2]: > 10 µM
- lung weight ([3]; FIG. 3, 3 mg/kg): does not prevent the increase in the weight of the lung
- lung weight ([3]; FIG. 3, listed as Example 1, 3 mg/kg): did not show significant difference compared with those in the medium-administered group
- HYP amount in the lung ([3]; FIG. 4, 3 mg/kg): does not prevent the increase in the amount of hydroxyproline
- HYP amount in the lung ([3]; FIG. 4, listed as Example 1, 3 mg/kg): did not show significant difference compared with those in the medium-administered group
- weight of the right lung ([4]; FIG. 1): significantly prevented the increase; also recorded: prevents the increase in the weight of the lung
- weight of the right lung ([4]; FIG. 1, listed as Example 1): lower compared with those in the medium-administered group
- HYP (hydroxyproline) amount in the right lung ([4]; FIG. 2): significantly prevented the increase; also recorded: prevents the increase in the amount of hydroxyproline
- HYP (hydroxyproline) amount in the right lung ([4]; FIG. 2, listed as Example 1): lower compared with those in the medium-administered group
- lung weight ([5]; FIG. 3): smaller compared with those in the medium-administered group
- HYP amount in the lung ([5]; FIG. 4): smaller compared with those in the medium-administered group
